According to ChEMBL document CHEMBL4842357, “Discovery of Novel Apigenin-Piperazine Hybrids as Potent and Selective Poly (ADP-Ribose) Polymerase-1 (PARP-1) Inhibitors for the Treatment of Cancer” (J Med Chem, 2021):
The source made the active and inactive calls. No cut-off for these calls is given here.

How the values were obtained:
Homo sapiens [1] = organism: Homo sapiens; experiment: Selectivity index, ratio of IC50 for PARP-2 (unknown origin) to IC50 for PARP-1 (unknown origin)
[2] = target: T1, Poly [ADP-ribose] polymerase 2 (Homo sapiens, UniProt Q9UGN5); experiment: Inhibition of PARP-2 (unknown origin)
T1 sequence (Q9UGN5 whole entry): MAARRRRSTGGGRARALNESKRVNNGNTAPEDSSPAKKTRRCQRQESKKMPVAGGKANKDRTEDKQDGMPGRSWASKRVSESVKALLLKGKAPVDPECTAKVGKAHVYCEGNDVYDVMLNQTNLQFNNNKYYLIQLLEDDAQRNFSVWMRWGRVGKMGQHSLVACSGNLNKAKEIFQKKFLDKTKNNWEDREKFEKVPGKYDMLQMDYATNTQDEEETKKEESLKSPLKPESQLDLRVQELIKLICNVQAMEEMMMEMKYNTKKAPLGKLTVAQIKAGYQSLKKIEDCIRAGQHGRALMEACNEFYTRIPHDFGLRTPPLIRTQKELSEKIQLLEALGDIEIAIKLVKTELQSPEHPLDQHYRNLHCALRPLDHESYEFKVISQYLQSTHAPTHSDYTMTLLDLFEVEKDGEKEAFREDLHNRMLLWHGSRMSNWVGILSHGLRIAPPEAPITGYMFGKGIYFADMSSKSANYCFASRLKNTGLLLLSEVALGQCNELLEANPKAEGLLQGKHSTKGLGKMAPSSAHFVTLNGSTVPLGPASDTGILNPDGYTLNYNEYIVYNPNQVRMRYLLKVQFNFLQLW

A549 [3] = experiment: Cytotoxicity against human A549 cells assessed as induction of CBP cytotoxicity incubated for 48 hrs in presence of CBP by MTT assay; format: functional, cell-based; conditions: dose 0.1-10 µM
[4] = target: Poly [ADP-ribose] polymerase 1 (Homo sapiens, UniProt P09874); experiment: Inhibition of recombinant human full-length PARP-1 using biotinylated substrate
Sequence of Poly [ADP-ribose] polymerase 1 (P09874 whole entry): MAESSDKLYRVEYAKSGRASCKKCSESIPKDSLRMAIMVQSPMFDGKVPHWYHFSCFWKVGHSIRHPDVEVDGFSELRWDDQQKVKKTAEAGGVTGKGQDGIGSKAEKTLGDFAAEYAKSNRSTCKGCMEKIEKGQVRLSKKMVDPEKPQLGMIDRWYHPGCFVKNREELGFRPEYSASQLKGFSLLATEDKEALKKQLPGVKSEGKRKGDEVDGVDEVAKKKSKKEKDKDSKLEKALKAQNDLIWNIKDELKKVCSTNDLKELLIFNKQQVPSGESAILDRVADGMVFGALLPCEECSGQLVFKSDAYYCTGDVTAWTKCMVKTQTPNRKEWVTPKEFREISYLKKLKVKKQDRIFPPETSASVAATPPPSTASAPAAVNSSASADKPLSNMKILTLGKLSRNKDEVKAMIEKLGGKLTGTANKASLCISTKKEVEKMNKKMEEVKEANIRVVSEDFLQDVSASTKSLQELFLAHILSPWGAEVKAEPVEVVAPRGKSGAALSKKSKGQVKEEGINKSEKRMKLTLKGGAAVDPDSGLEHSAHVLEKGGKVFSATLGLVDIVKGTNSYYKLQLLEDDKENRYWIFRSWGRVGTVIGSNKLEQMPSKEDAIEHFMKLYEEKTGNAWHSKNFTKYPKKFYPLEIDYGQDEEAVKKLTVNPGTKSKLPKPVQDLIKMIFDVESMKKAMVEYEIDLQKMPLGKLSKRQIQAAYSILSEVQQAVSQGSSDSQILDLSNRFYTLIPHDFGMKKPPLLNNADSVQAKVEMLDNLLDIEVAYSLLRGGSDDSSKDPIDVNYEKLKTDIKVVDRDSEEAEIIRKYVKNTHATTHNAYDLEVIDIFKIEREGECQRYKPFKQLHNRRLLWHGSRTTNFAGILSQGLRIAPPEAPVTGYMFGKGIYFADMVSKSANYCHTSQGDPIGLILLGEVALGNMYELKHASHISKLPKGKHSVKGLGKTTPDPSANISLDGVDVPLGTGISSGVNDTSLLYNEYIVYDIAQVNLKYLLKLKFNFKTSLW

A549 [5] = experiment: Cytotoxicity against human A549 cells assessed as reduction in cell viability at 0.1 to 10 uM incubated for 48 hrs by MTT assay; format: functional, cell-based; conditions: dose 0.1-10 µM
[6] = target: T1, Poly [ADP-ribose] polymerase 2; experiment: Inhibition of recombinant human full-length PARP-2 using biotinylated substrate
Homo sapiens [7] = organism: Homo sapiens; experiment: Selectivity index, ratio of IC50 for inhibition of recombinant human full-length PARP-2 to IC50 for inhibition of recombinant human full-length PARP-1
SK-OV-3 [8] = experiment: Cytotoxicity against human BRCA-1 deficient SK-OV-3 cells assessed as reduction in cell viability at 0.1 to 10 uM incubated for 48 hrs by MTT assay; format: functional, cell-based; conditions: dose 0.1-10 µM
[9] = Acute toxicity in ICR mouse assessed as death at 1000 mg/kg, po administered only once at day 1 and measured after 5 to 8 days; format: organism-based; conditions: in vivo, time 5-8 day
SK-OV-3 [10] = experiment: Antitumor activity against human SK-OV-3 cells xenografted in BALB/c nude mouse assessed as relative tumor volume at 50 mg/kg, po administered once daily for 12 days; format: functional; conditions: time 12 day
SK-OV-3 [11] = experiment: Antitumor activity against human SK-OV-3 cells xenografted in BALB/c nude mouse assessed as decrease in tumor volume at 50 mg/kg, po administered once daily measured for 28 days; format: functional, organism-based; conditions: time 28.0 day
[12] = Acute toxicity in ICR mouse assessed as effect on kidney at 1000 mg/kg, po administered only once at day 1 and measured every two days for 14 days; format: organism-based; conditions: in vivo, 336 h, time 14 day
[13] = Hepatotoxicity in ICR mouse assessed as effect on ALT level at 1000 mg/kg, po administered only once at day 1 and measured every two days for 14 days (reference value: 28.6 +/- 6.9 U/L); format: toxicity, organism-based; conditions: in vivo, 336 h, time 14 day
[14] = Renal toxicity in ICR mouse assessed as effect on BUN level at 1000 mg/kg, po administered only once at day 1 and measured every two days for 14 days (reference value: 8.9 +/- 0.9 mmol/L); format: organism-based; conditions: in vivo, 336 h, time 14 day
[15] = Acute toxicity in ICR mouse assessed as change in body weight at 1000 mg/kg, po administered only once at day 1 and measured every two days for 14 days; format: organism-based; conditions: in vivo, 336 h, time 14 day
[16] = Acute toxicity in ICR mouse assessed as change in blood routine at 1000 mg/kg, po administered only once at day 1 and measured every two days for 14 days; format: organism-based; conditions: in vivo, 336 h, time 14 day
[17] = Hepatotoxicity in ICR mouse assessed as effect on AST level at 1000 mg/kg, po administered only once at day 1 and measured every two days for 14 days (reference value: 61.5 +/- 3.7 U/L); format: toxicity, organism-based; conditions: in vivo, 336 h, time 14 day
[18] = Acute toxicity in ICR mouse assessed as effect on spleen at 1000 mg/kg, po administered only once at day 1 and measured every two days for 14 days; format: organism-based; conditions: in vivo, 336 h, time 14 day

Row | Compound | Activity (A549 [3]) | IC50 [4] | Activity (A549 [5]) | IC50 [6] | Ratio IC50 (Homo sapiens [7]) | Activity (SK-OV-3 [8]) | also measured
1 | COc1cc(/C=N/NC(N)=S)c(Br)c(Br)c1OC | – | – | – | – | – | – | Ratio IC50 (Homo sapiens [1]): > 33.9; IC50 [2]: > 1 µM
2 | O=c1cc(-c2ccc(O)cc2)oc2c(CN3CCN(Cc4ccco4)CC3)c(O)cc(O)c12 | Dose-Dependent Effect | 17.9 nM | inactive | 1300 nM | 72.6 | Active | Activity [9]: Toxic
3 | Cn1cccc1/C=C1\C(=O)NC(=O)c2ccccc21 | – | – | – | – | – | – | Ratio IC50 (Homo sapiens [1]): 88.9; IC50 [2]: 40 µM
4 | O=C(c1cc(Cc2n[nH]c(=O)c3ccccc23)ccc1F)N1CCN(C(=O)C2CC2)CC1 [OLAPARIB] | – | – | – | – | – | – | Activity (SK-OV-3 [10]): 2.12; Activity (SK-OV-3 [11]): Active
5 | O=C(c1ccco1)N1CCN(Cc2c(O)cc(O)c3c(=O)cc(-c4ccc(O)cc4)oc23)CC1 | Dose-Dependent Effect | 13.7 nM | inactive | 800 nM | 68.3 | Active | Activity [12]: Toxic; Activity [13]: 31.2 U/L; Activity [14]: 9.1 mmol/L; Activity [15]: Non-Toxic; Activity [16]: Non-Toxic; Activity [17]: 79.3 U/L; Activity [18]: Toxic
6 | O=C(c1cccs1)N1CCN(Cc2c(O)cc(O)c3c(=O)cc(-c4ccc(O)cc4)oc23)CC1 | Dose-Dependent Effect | 15.8 nM | inactive | 1100 nM | 69.6 | Active | Activity [12]: Toxic; Activity [13]: 29.6 U/L; Activity [14]: 10.3 mmol/L; Activity [15]: Non-Toxic; Activity [16]: Non-Toxic; Activity [17]: 77.6 U/L; Activity [18]: Toxic
7 | O=c1cc(-c2ccc(O)cc2)oc2c(CN3CCN(Cc4ccc(Cl)cc4)CC3)c(O)cc(O)c12 | – | 31.6 nM | – | 1800 nM | 57 | – | –
